According to patent US20100311717A1, “METHODS AND COMPOSITIONS FOR RETARDING WEIGHT GAIN ASSOCIATED WITH USE OF ATYPICAL ANTIPSYCHOTIC DRUGS” (priority 2007, published 2010):
Read-outs that look alike come from different tables or passages of the source. One block for each compound: values may come before it.

Tests used:
[1] = macroprolactinomas; cited from earlier work
[2] = in vivo; cited from earlier work
[3] = in vivo; cited from earlier work; remark: listed apart in the source
[4] = Clinical cases: appetite / hunger; details: Example 10, olanzapine 2.5 mg HS
[5] = bipolar II, 6 weeks, n=10; cited from earlier work
[6] = cited from earlier work
[7] = Parkinson's disease, 3.5-4.5 mg/day; decreased when the dose was lowered; cited from earlier work
[8] = in vivo; cited from earlier work; remark: listed apart in the source
[9] = tested on: cytochrome p450 (CPY) system; details: cited from earlier work
[10] = not given; remark: listed apart in the source
[11] = Clinical cases: galactorrhea; details: Example 2, risperidone 2 mg per day
[12] = target: D3 (Homo sapiens, UniProt P35462); details: cited from earlier work
[13] = Example 12, approximately two months on pramipexole, same as before starting
[14] = Example 9, pramipexole 0.25 mg AM & HS with quetiapine

D3, sequence (P35462 whole entry): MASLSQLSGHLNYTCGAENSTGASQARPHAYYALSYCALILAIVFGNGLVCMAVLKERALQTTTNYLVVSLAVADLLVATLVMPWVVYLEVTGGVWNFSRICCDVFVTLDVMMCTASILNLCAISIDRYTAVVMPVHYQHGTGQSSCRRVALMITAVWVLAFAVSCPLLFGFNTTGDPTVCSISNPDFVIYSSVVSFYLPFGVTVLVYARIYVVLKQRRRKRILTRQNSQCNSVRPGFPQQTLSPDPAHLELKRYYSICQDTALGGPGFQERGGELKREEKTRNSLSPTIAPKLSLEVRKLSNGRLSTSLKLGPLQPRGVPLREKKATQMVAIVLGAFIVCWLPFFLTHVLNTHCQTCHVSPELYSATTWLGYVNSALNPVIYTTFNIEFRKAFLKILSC

Compound: CCCN1CC(NS(=O)(=O)N(CC)CC)CC2Cc3c(O)cccc3CC21 (centres unmarked) [Quinagolide, quinagolide]
patients with significant weight loss [1]: 11 of 12 | half-life [2]: 24 h

Compound: CC(C)C[C@H]1C(=O)N2CCC[C@H]2[C@]2(O)O[C@](NC(=O)[C@@H]3C=C4c5cccc6[nH]c(Br)c(c56)C[C@H]4N(C)C3)(C(C)C)C(=O)N12 [bromocriptine]
abdominal cramps [3]: 4% | constipation [3]: 3% | diarrhea [3]: 3% | dizziness [3]: 17% | drowsiness [3]: 3% | fatigue [3]: 7% | headache [3]: 19% | incidence of adverse effects [3]: 69% | lightheadedness [3]: 5% | nasal congestion [3]: 3% | nausea [3]: 49% | patients in whom therapy was discontinued because of adverse effects [3]: approximately 5% | vomiting [3]: 5%

Compound: Cc1cc2c(s1)Nc1ccccc1N=C2N1CCN(C)CC1 [olanzapine]
appetite [4]: marked increase in appetite

Compound: CCCN[C@H]1CCc2nc(N)sc2C1 [pramipexole]
subjects who developed hypomanic symptoms [5]: One | increase in anxiety ([6]; early in the dose escalation): 18 of 38 | nausea reported ([6]; fibromyalgia, 14 week study): 79% | triglycerides after pramipexole (Example 7, pre-pramipexole 2.88 mmol/L): 2.4 mmol/L | cholesterol after pramipexole (Example 7, pre-pramipexole 6.6 mmol/L): 5.6 mmol/L | cholesterol [13]: 7.5 mmol/L | fasting blood sugar (FBS) [13]: 6.6 mmol/L | triglycerides [13]: 3.6 mmol/L | effect on weight [7]: caused weight gain | excreted unchanged in the urine [8]: 90% | interaction with the cytochrome p450 system [9]: does not interact | weight lost ([10]; Example 1, pramipexole 0.25 mg twice per day with olanzapine 20 mg per day): 11 pounds | weight after treatment ([10]; Example 1, pramipexole 0.25 mg twice per day with olanzapine 20 mg per day, from 187 pounds): 176 pounds | weight maintained at ([10]; Example 3, olanzapine 10 mg per day with pramipexole up to 0.75 mg per day, prednisone 5 mg per day added): 202 pounds | weight after restarting pramipexole ([10]; Example 4, 0.25 mg twice daily, within the next two weeks): 174 pounds | weight maintained at ([10]; Example 4, olanzapine 5 mg per day with pramipexole 0.25 mg twice per day): 168 pounds | weight after discontinuing pramipexole ([10]; Example 4, within one week, on olanzapine 5 mg per day): 181 pounds | weight after treatment ([10]; Example 5, pramipexole increased to 0.25 mg per day, after 6 weeks): 154 pounds | weight after discontinuing pramipexole ([10]; Example 6): 250 pounds | weight after treatment ([10]; Example 6, pramipexole 0.25 mg per day, from 247 pounds): 244 pounds | weight after treatment ([10]; Example 7, pramipexole 0.25 mg per day, later): 212 pounds | weight after treatment ([10]; Example 7, pramipexole increased to 0.25 mg per day, in two weeks): 214 pounds | weight maintained at ([10]; Example 8, olanzapine 15 mg per day with pramipexole 0.25 mg TID): 259 pounds | weight decreased by [10, 14]: 3 pounds | weight maintained at [10, 14]: 157 pounds | weight gained ([10]; Example 11, pramipexole 0.25 mg AM & HS for 3 weeks, with quetiapine): 5 pounds | weight after treatment ([10]; Example 12, pramipexole 0.25 mg twice per day): 172 pounds | weight after treatment ([10]; Example 13, pramipexole up to 0.25 mg twice per day, from 132 pounds): 127 pounds | weight lost ([10]; Example 13, pramipexole up to 0.25 mg twice per day, in three weeks): 5 pounds | weight maintained at ([10]; Example 14, olanzapine 10 mg per day with pramipexole 0.25 mg twice per day, several months): 312 pounds

weight after treatment ([10]; human, in vivo): 185 pounds
Compound: C[C@]12C=CC(=O)C=C1CC[C@@H]1[C@@H]2C(=O)C[C@@]2(C)[C@H]1CC[C@]2(O)C(=O)CO [prednisone]

Compound: Cc1nc2n(c(=O)c1CCN1CCC(c3noc4cc(F)ccc34)CC1)CCCC2 [risperidone]
galactorrhea [11]: developed galactorrhea

Compound: CCCN(CCC)CCc1cccc2c1CC(=O)N2 [ropinirole]
interaction with the cytochrome p450 system [9]: p450 interactions | D3 affinity relative to pramipexole [12]: less D3 affinity
